One data set has as its system APP/PS1 mice. The data set is described as follows: Aβ plaque staining and Aβ ELISA in brains of APP/PS1 mice. In kind it is in vivo. To be noted: for amyloid plaque burdens (Aβ1‐42, Aβ1‐16 staining): prevention study, hippocampus and cortex. As for the experimental part: APP/PS1 transgenic mice were purchased from Jackson Laboratory and reproduced in the Shenzhen Center for Disease Control and Prevention (Shenzhen, China). Two‐month‐old APP/PS1 mice were divided into four groups: (1) APP/PS1 + Vehicle group; (2) APP/PS1 + MN‐08 (6 mg/kg) group; (3) APP/PS1 + Memantine (Mem, 5 mg/kg) group; (4) APP/PS1 + Donepezil (Done, 1.3 mg/kg, once daily) group; (5) Two‐month‐old C57BL/6J mice as a control group. The APP/PS1 mice were administered drugs twice a day (Done, once daily) by gastric gavage from ages 2 to 8 months for 6 months successively. Control and vehicle groups received equal volumes of saline.
To evaluate the concentration of soluble and insoluble Aβ in AD mice, the hippocampus and cortex were homogenized in the lysate, which was then centrifuged at 12000 g for 30 min at 4°C. Supernatant samples were collected as soluble Aβ. Sediment of the cortex and hippocampus was resuspended with formic acid, incubated on ice for 60 min and then centrifuged at 12,000 g for 30 min at 4°C. The supernatant and Tris/NaH2PO4 buffer were mixed as insoluble Aβ. The concentration of Aβ was analyzed by ELISA kit of human amyloid β (R&D Systems, Minneapolis, MN, USA) following the manufacturer’s instructions.
Immunohistochemistry and immunofluorescence staining were carried out as previously described (Zhang et al., 2017). Coronal brain sections were incubated with […] sodium citrate (pH 6.0) and heated for 15 min. After cooling to room temperature, the sections were immersed in 3 % H2O2 for 10 min followed by blocking solution (10 % fetal bovine serum, 1 % bovine serum albumin and 0.1 % Triton X-100) for 1 h. Sections were then incubated with the following appropriate primary antibodies overnight at 4°C: anti-Aβ1-42 antibody (#ab10148, 1:1000, Abcam), anti-Aβ1-16 antibody (#803014, 1:1000, Abcam) and anti-NeuN antibody (#ab177487, 1:400, Abcam). After rinsing 3 times, the sections of immunohistochemistry staining were incubated with biotin-conjugated universal secondary antibody (Gene Tech, Shanghai, China). For immunofluorescence staining, the sections were incubated with appropriate secondary antibodies for 2 h at room temperature. Image J software was used to analyze the fluorescence intensity and cell counting from six slices at similar coronal positions of each animal; this was performed by a viewer blinded to the experimental group.

Another data set has as its system 3×Tg‐AD mice. The data set is described as follows: Golgi staining of dendritic spines and Western blotting of synaptic markers in 3×Tg-AD mice. In kind it is in vivo. As to the method: Triple transgenic 3×Tg‐AD mice were acquired from Jackson Laboratory and fostered in the Shenzhen Center for Disease Control and Prevention (Shenzhen, China). Eight‐month‐old 3×Tg‐AD mice were categorized into six groups: (1) 3×Tg‐AD +Vehicle group; (2) 3×Tg‐AD +MN‐08 (3 mg/kg) group; (3) 3×Tg‐AD +MN‐08 (6 mg/kg) group; (4) 3×Tg‐AD +MN‐08 (12 mg/kg) group; (5) 3×Tg‐AD +Memantine (Mem, 5 mg/kg) group; (6) 3×Tg‐AD +Donepezil (Done, 1.3 mg/kg, once daily) group; (7) Eight‐month‐old B6129SF2/J mice as a control group. MN‐08 and memantine were given twice daily (Done, once daily) by gastric gavage for 4 months from 8 months of age.
Golgi staining was used to determine hippocampal dendritic spine density by a Rapid Golgi Stain Kit (FD Neurotechnologies, Columbia, MD, USA) according to the manufacturer’s instructions. The brain was removed after the behavioral tests and incubated with impregnation solution in the dark at room temperature for 1 week. Impregnation solution was replaced with solution A and stored in the dark for 3 days. Brain sections (100 μm thickness) were placed on gelatin-coated microscope slides and then immersed in ddH2O. Solution B, Solution C, 80 % ethanol and xylene were used for 10 min, sequentially. The dendritic spines of hippocampal neurons were analyzed and counted in a blinded manner from six sections per animal by light microscopy (Olympus, Tokyo, Japan).
Western blotting analysis was performed as previously described with minor modifications (Huang, Li, & Nan, 2017). Proteins were extracted from hippocampal tissue and their concentrations determined by the BCA protein assay kit (Fdbio science, Hangzhou, China). The protein (20 μg) was separated on a 12% SDS-PAGE gel and then transferred to PVDF membranes. The membranes were blocked using 5 % nonfat dry milk for 2 h. […] Quantitative analysis of protein bands was conducted by the Carestream system (Carestream Health, Inc, USA).
In general terms: A western blot detects proteins with antibodies after separation by electrophoresis.

As to `CCC12CC3CC(N)(C1)CC(CO[N+](=O)[O-])(C3)C2` (stereo not shown) [MN‐08], the “amyloid plaque burdens (Aβ1‐42, Aβ1‐16 staining)” value with APP/PS1 mice (MN‐08 6 mg/kg) is “obviously attenuated”. For the same compound, the “soluble and insoluble Aβ1–42 (ELISA)” value in the data set on APP/PS1 mice (MN‐08 6 mg/kg, hippocampal and cortical regions) is recorded as “significantly decreased”. Further, the “levels of Aβ1–40 (ELISA)” value in the data set on APP/PS1 mice (MN‐08 6 mg/kg, hippocampi and cortices) is on record as “no significant difference”. Further, in the data set on 3×Tg‐AD mice (MN‐08 6 mg/kg), the “reduction of dendritic spines (hippocampus CA1, Golgi staining)” value is given as “markedly reversed”. The “expression of synaptic markers (SYP, PSD95, SYN I, SYN II, NR2A)” value in the data set with 3×Tg‐AD mice (MN‐08 6 mg/kg, Western blot) is “significantly increased”.
As to `CC12CC3CC(C)(C1)CC(N)(C3)C2` [memantine, 1‐amino‐3,5‐dimethyladamantane], the “amyloid plaque burdens (Aβ1‐42, Aβ1‐16 staining)” value in the data set with APP/PS1 mice (memantine 5 mg/kg) is “obviously attenuated”. In addition, the “reduction of dendritic spines (hippocampus CA1, Golgi staining)” value in the data set on 3×Tg‐AD mice (memantine 5 mg/kg) was “markedly reversed”.

The values are drawn from paper PMC8208785, “Therapeutic efficacy of novel memantine nitrate MN‐08 in animal models of Alzheimer’s disease” (Aging Cell, 2021).
